≈ marks a conversion by molar mass, not a printed value.
What was measured:
[1] = system: Haemophilus influenzae ATCC 49247; assay: MIC, broth microdilution (CLSI) versus planktonic bacteria; assay type: cell-based; settings: ATCC49247; Haemophilus influenzae ATCC 49247; 16-20 h; mode of three independent experiments; read-out: MIC, Hi ATCC 49247
[2] = system: E. coli MG1655; assay: as above; assay type: cell-based, Escherichia coli; settings: Escherichia coli, MG1655, read-out: MIC, Ec MG1655 WT
[3] = system: Escherichia coli ATCC 25922; assay: as above; assay type: cell-based; settings: ATCC25922; Escherichia coli ATCC 25922; 16-20 h; mode of three independent experiments; read-out: MIC, Ec ATCC 25922
[4] = system: Streptococcus pneumoniae ATCC 49619; assay: as above; assay type: cell-based; settings: ATCC49619; Streptococcus pneumoniae ATCC 49619; 16-20 h; mode of three independent experiments; read-out: MIC, Sp ATCC 49619
[5] = system: E. coli MG1655 D87G; assay type: cell-based, Escherichia coli; settings: compared to the isogenic parent strain E. coli MG1655; D87G mutation on DNA gyrase subunit GyrA
[6] = system: Enterobacter cloacae NCTC 13406; assay: MIC, broth microdilution (CLSI) versus planktonic bacteria; assay type: cell-based; settings: NCTC13406; Enterobacter cloacae NCTC 13406; 16-20 h; mode of three independent experiments; read-out: MIC, Ecl NCTC 13406
[7] = system: Mycobacterium smegmatis ATCC 19420; assay: as above; assay type: cell-based; settings: Mycolicibacterium smegmatis, ATCC19420, 16-20 h, mode of three independent experiments, read-out: MIC, Ms ATCC 19420
[8] = system: human hepatic cell line (HepG2 ATCC HB-8065); assay: Human cell viability assay (CellTiter-Glo); settings: Homo sapiens, HepG2, 24 h, read-out: IC50 (μg/mL) HepG2
[9] = system: Acinetobacter baumannii ATCC 19606; assay: MIC, broth microdilution (CLSI) versus planktonic bacteria; assay type: cell-based; settings: ATCC19606; Acinetobacter baumannii ATCC 19606; 16-20 h; mode of three independent experiments; read-out: MIC, Ab ATCC 19606
[10] = system: Staphylococcus aureus ATCC 29213; assay: as above; assay type: cell-based; settings: ATCC29213; Staphylococcus aureus ATCC 29213; 16-20 h; mode of three independent experiments; read-out: MIC, Sa ATCC 29213
[11] = system: fluoroquinolone-resistant Enterococcus faecium ATCC 700221; assay: as above; assay type: cell-based; settings: ATCC700221, 16-20 h, mode of three independent experiments, read-out: MIC, Efm ATCC 700221
[12] = system: Gram-negative and Gram-positive bacterial strains; assay type: cell-based; settings: strain panel of Table 1
[13] = system: Enterococcus faecalis ATCC 29212; assay: MIC, broth microdilution (CLSI) versus planktonic bacteria; assay type: cell-based; settings: ATCC29212, 16-20 h, mode of three independent experiments, read-out: MIC, Ef ATCC 29212
[14] = system: E. coli MG1655 S83L; assay type: cell-based, Escherichia coli; settings: compared to the isogenic parent strain E. coli MG1655; S83L mutation on DNA gyrase subunit GyrA
[15] = system: Neisseria meningitidis ATCC 13090; assay: MIC, broth microdilution (CLSI) versus planktonic bacteria; assay type: cell-based; settings: ATCC13090, 16-20 h, mode of three independent experiments
[16] = system: Enterococcus faecium ATCC 19434; assay: as above; assay type: cell-based; settings: ATCC19434, 16-20 h, mode of three independent experiments, read-out: MIC, Efm ATCC 19434
[17] = system: E. coli NCTC 13476; assay: as above; assay type: cell-based; settings: NCTC13476; Escherichia coli NCTC 13476; 16-20 h; mode of three independent experiments; read-out: MIC, Ec NCTC 13476
[18] = system: Pseudomonas aeruginosa ATCC 27853; assay: as above; assay type: cell-based; settings: ATCC27853; Pseudomonas aeruginosa ATCC 27853; 16-20 h; mode of three independent experiments; read-out: MIC, Pa ATCC 27853
[19] = system: Acinetobacter baumannii NCTC 13420; assay: as above; assay type: cell-based; settings: NCTC13420; Acinetobacter baumannii NCTC 13420; 16-20 h; mode of three independent experiments; read-out: MIC, Ab NCTC 13420
[20] = system: E. coli ATCC BAA-2452; assay: as above; assay type: cell-based; settings: Escherichia coli ATCC BAA-2452; 16-20 h; mode of three independent experiments; read-out: MIC, Ec ATCC BAA 2452
[21] = system: Burkholderia pseudomallei 1026b; assay: microbe, parasite or virus in culture; assay type: cell-based; settings: 24 h, read-out: MIC, Burkholderia pseudomallei 1026b
[22] = system: Burkholderia pseudomallei K96243; assay: microbe, parasite or virus in culture; assay type: cell-based; settings: K96243, 24 h, read-out: MIC, Burkholderia pseudomallei K96243
[23] = system: Burkholderia pseudomallei DD503; assay: microbe, parasite or virus in culture; assay type: cell-based; settings: DD503, 24 h, read-out: MIC, Burkholderia pseudomallei DD503
[24] = system: Burkholderia mallei China 7; assay: microbe, parasite or virus in culture; assay type: cell-based; settings: CHINA7, 24 h, read-out: MIC, Burkholderia mallei China 7
[25] = system: Yersinia pestis CO92; assay: microbe, parasite or virus in culture; assay type: cell-based; settings: CO92, read-out: MIC, Yersinia pestis CO92
[26] = system: Bacillus anthracis Ames; assay: microbe, parasite or virus in culture; assay type: cell-based; settings: 24 h, read-out: MIC, Bacillus anthracis Ames
[27] = system: Francisella tularensis SCHU S4; assay: microbe, parasite or virus in culture; assay type: cell-based; settings: SCHUS4, 38 h, read-out: MIC, Francisella tularensis SCHU S4

| Compound | MIC [1] [µg/mL] | MIC [2] [µg/mL] | MIC [3] [µg/mL] | MIC [4] [µg/mL] | Fold increase in MIC, E. coli MG1655 D87G [5] [fold] | MIC [6] [µg/mL] | MIC [7] [µg/mL] | IC50 [8] [µg/mL] | MIC [9] [µg/mL] | MIC [10] [µg/mL] | MIC [11] [µg/mL] | activity against both Gram-negative and Gram-positive bacteria (in words) [12] | MIC [13] [µg/mL] | Fold increase in MIC, E. coli MG1655 S83L [14] [fold] | MIC [15] [µg/mL] | MIC [16] [µg/mL] | MIC [17] [µg/mL] | MIC [18] [µg/mL] | MIC [19] [µg/mL] | MIC [20] [µg/mL] | also measured |
| --- | --- | --- | --- | --- | --- | --- | --- | --- | --- | --- | --- | --- | --- | --- | --- | --- | --- | --- | --- | --- | --- |
| COc1ccc2ccc(=O)n(CCN[C@@H]3CC[C@@H]4[C@@H](C3)OC(=O)N4c3ccc4c(n3)NC(=O)CO4)c2n1 [Compound 1, 1-(2-{[(3aR,6R,7aR)-2-oxo-3-{3-oxo-2H,3H,4H-pyrido[3,2-b][1,4]oxazin-6-yl}-octahydro-1,3-benzoxazol-6-yl]amino}ethyl)-7-methoxy-1,2-dihydro-1,8-naphthyridin-2-one] | < 1 | < 1 | < 1 | < 1 | 1 | < 1 | < 1 | > 100 | < 1 | < 1 | < 1 | excellent activity | < 1 | 1 | < 1 | < 1 | < 1 | < 1 | < 1 | < 1 | – |
| COc1ncc2ccc(=O)n(CCN[C@@H]3CC[C@@H]4[C@@H](C3)OC(=O)N4c3ccc4c(n3)NC(=O)CO4)c2n1 [Compound 2, (3aR,6R,7aR)-6-[(2-{2-methoxy-7-oxo-7H,8H-pyrido[2,3-d]pyrimidin-8-yl}ethyl)amino]-3-(3-oxo-2H,3H,4H-pyrido[3,2-b][1,4]oxazin-6-yl}-octahydro-1,3-benzoxazol-2-one] | < 1 | < 1 | < 1 | < 1 | 1 | < 1 | < 1 | > 100 | < 1 | < 1 | – | – | – | 1 | < 1 | – | 1 to 10 (≈ 1.97 to 19.7 µM) | 1 to 10 (≈ 1.97 to 19.7 µM) | < 1 | < 1 | MIC [21]: 1 to 4 µg/mL (≈ 1.97 to 7.88 µM); MIC [22]: 1 to 4 µg/mL (≈ 1.97 to 7.88 µM); MIC [23]: 1 to 4 µg/mL (≈ 1.97 to 7.88 µM); MIC [24]: 1 to 4 µg/mL (≈ 1.97 to 7.88 µM); MIC [25]: < 1 µg/mL; MIC [26]: < 1 µg/mL; MIC [27]: 1 to 4 µg/mL (≈ 1.97 to 7.88 µM) |
| COc1ccc2ccc(=O)n(CCCN[C@@H]3CC[C@@H]4[C@@H](C3)OC(=O)N4c3ccc4c(n3)NC(=O)CO4)c2n1 [Compound 76, 1-(3-{[(3aR,6R,7aR)-2-oxo-3-{3-oxo-2H,3H,4H-pyrido[3,2-b][1,4]oxazin-6-yl}-octahydro-1,3-benzoxazol-6-yl]amino}propyl)-7-methoxy-1,2-dihydro-1,8-naphthyridin-2-one] | < 1 | < 1 | < 1 | < 1 | 2 | < 1 | – | 10 to 100 (≈ 19.2 to 192 µM) | < 1 | < 1 | < 1 | excellent activity | < 1 | 2 | – | < 1 | < 1 | < 1 | < 1 | < 1 | – |
| C[C@H]1c2cccc(O)c2C(=O)C2=C(O)[C@]3(O)C(=O)C(C(N)=O)=C(O)[C@@H](N(C)C)[C@@H]3[C@@H](O)[C@@H]21 [DOX, doxycycline, reference compound] | – | – | – | – | – | – | – | – | – | – | – | – | – | – | – | – | – | – | – | – | MIC [21]: 1 to 4 µg/mL (≈ 2.25 to 9 µM); MIC [22]: 1 to 4 µg/mL (≈ 2.25 to 9 µM); MIC [23]: 1 to 4 µg/mL (≈ 2.25 to 9 µM); MIC [24]: < 1 µg/mL; MIC [25]: 1 to 4 µg/mL (≈ 2.25 to 9 µM); MIC [26]: < 1 µg/mL; MIC [27]: < 1 µg/mL |

Source: patent US10487093B2, “Heterocyclic compounds, in particular 2-oxo-4,4,5,5,6,6,7,7-octahydrobenzoxazole derivatives, and their use as antibacterial compounds” (priority 2016, dated 2019)
